Active and inactive are the calls of the source.
Tests used:
[1] = target: Serine/threonine-protein kinase pim-1 (Homo sapiens, UniProt P11309); type: functional
[2] = target: Dual specificity protein kinase CLK4 (Homo sapiens, UniProt Q9HAZ1); type: functional
[3] = target: Mitogen-activated protein kinase kinase kinase kinase 4 (Homo sapiens, UniProt O95819); type: functional
[4] = target: Cyclin-dependent kinase 2 (Homo sapiens, UniProt P24941); type: functional;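 further: CDK2 measured as one member of a broad kinome profiling panel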
[5] = target: Glycogen synthase kinase-3 beta (Homo sapiens, UniProt P49841); type: functional;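 further: value comes from a broad kinome profiling panel, with GSK3B as the panel member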
[6] = target: Interleukin-1 receptor-associated kinase 4 (Homo sapiens, UniProt Q9NWZ3); type: functional
[7] = target: Cell division cycle 7-related protein kinase (Homo sapiens, UniProt O00311); type: functional;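 further: value obtained from a kinome-wide kinase panel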
[8] = target: cAMP-dependent protein kinase catalytic subunit alpha (Homo sapiens, UniProt P17612); type: functional
[9] = target: Homeodomain-interacting protein kinase 2 (Homo sapiens, UniProt Q9H2X6); type: functional;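 further: measured within a kinome-wide kinase profiling panel, HIPK2 being one panel member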
[10] = AlphaScreen signal interference compounds, dose response, artefact control for ARNT-TACC3 interaction inhibitor project, biochemical, luminescence, cherry-pick (AID 651705); type: functional;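 further: AlphaScreen bead proximity signal that flags compounds interfering with the detection technology; potency reflects signal decrease which marks the compound as an assay artifact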
Caspase-3 = target: T1, Caspase-3 (Homo sapiens, UniProt P42574); test: Dose-response confirmation of uHTS inhibitor hits of Sentrin-Specific Protease 8 in a Caspase-3 Fluorescence assay.; type: functional
T1 sequence (P42574 whole entry): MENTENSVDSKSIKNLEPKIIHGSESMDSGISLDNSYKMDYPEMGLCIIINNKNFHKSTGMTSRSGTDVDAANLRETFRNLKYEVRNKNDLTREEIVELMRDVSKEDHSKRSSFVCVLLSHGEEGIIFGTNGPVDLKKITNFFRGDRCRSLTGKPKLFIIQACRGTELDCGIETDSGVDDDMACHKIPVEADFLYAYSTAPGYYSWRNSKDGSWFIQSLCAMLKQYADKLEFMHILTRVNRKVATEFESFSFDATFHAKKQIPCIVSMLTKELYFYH

[11] = target: T2, Sentrin-specific protease 8 (Homo sapiens, UniProt Q96LD8); type: functional
T2 sequence (Q96LD8 whole entry): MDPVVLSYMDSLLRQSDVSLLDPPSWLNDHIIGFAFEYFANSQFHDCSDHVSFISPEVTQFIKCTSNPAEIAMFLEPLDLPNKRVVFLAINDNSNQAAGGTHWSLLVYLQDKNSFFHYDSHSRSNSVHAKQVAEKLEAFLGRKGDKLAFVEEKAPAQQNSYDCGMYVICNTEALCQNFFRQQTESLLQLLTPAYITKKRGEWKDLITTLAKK

[12] = target: Latent membrane protein 1 (Human herpesvirus 4 (strain B95-8), UniProt P03230); test: TES1-eGFP NF-kB reporter inhibition versus Tet-On dsRED, dose response, selectivity assay for LMP1 NF-kB inhibitor project, imaging, HEK293T, dual-color eGFP/dsRED, cherry-picks (AID 588398); type: functional, cell-based
Genome polyprotein = Genome polyprotein (dengue virus type 2, UniProt P29990); test: Dengue-2 NS5 methyltransferase inhibitors, primary screen, biochemical, confirmation dose response (AID 588689); type: functional
[13] = THP-1 cell cytotoxicity, dose response, cytotoxicity control for Vif-APOBEC3G degradation inhibitor project, THP-1 cells (AID 1117359); type: functional; details: Human immunodeficiency virus 1, THP-1
[14] = target: T2, Sentrin-specific protease 8; type: functional; remark: listed apart in the source
[15] = target: T3, DNA repair protein RAD52 homolog (Homo sapiens, UniProt P43351); type: functional, biochemical
T3 sequence (P43351 whole entry): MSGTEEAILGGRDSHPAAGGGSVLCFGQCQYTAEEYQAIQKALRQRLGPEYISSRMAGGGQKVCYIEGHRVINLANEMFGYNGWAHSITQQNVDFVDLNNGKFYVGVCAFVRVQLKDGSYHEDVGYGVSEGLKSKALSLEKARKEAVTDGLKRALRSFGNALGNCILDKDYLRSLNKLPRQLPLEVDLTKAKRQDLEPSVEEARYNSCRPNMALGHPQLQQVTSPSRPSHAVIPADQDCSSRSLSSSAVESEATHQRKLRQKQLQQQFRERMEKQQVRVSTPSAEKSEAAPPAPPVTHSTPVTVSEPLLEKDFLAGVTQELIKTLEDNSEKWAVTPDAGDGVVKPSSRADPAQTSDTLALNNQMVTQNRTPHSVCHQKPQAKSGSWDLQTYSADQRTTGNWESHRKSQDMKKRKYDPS

[16] = target: Glutathione-S-transferase (Schistosoma japonicum, UniProt Q26513); test: biotin-GST/anti-GST TR-FRET signal inhibitors, dose response, artefact control for Vif-APOBEC3G degradation inhibitor project, biochemical (AID 1117362); type: functional
[17] = target: Botulinum neurotoxin type A (Clostridium botulinum (strain Hall / ATCC 3502 / NCTC 13319 / Type A), UniProt P0DPI1); test: High-throughput multiplex microsphere dose response for inhibitors of toxin protease, specifically Botulinum neurotoxin light chain A protease, compounds from Cherry Pick 01.; type: functional; details: read-out: EC50_MICROM
INS1 = test: beta cell apoptosis inhibitors, cytokine rescue, dose response, luminescence, retest (AID 449756); type: functional, cell-based; details: Rattus norvegicus;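 further: cell death triggered by IL-1 beta plus TNF-alpha plus IFN-gamma mixture; protective hits raise ATP signal compared with cytokine alone wells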
[18] = microbe, parasite or virus in culture; type: functional; details: Mycobacterium tuberculosis
[19] = target: T4, High affinity choline transporter 1 (Homo sapiens, UniProt Q9GZV3); test: CHT activators, dose response, cell-based, 10-point CRC, membrane potential dye (AID 602376); type: functional
T4 sequence (Q9GZV3 whole entry): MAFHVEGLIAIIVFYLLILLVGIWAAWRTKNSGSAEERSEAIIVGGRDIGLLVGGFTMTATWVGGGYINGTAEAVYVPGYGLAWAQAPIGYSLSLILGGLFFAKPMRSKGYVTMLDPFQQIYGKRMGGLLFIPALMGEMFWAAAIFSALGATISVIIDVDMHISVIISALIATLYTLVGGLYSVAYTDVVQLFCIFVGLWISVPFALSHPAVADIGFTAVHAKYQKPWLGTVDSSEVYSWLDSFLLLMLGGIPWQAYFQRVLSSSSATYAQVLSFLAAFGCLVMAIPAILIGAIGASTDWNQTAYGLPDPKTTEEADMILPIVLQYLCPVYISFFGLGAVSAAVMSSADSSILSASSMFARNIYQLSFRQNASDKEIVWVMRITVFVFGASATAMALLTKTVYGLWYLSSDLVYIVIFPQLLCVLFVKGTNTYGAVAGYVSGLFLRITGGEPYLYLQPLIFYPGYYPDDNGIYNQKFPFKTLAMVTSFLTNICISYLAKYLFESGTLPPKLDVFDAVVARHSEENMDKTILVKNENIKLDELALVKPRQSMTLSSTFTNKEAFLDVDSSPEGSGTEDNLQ

Chain of Cell division cycle 7-related protein kinase (O00311 whole entry): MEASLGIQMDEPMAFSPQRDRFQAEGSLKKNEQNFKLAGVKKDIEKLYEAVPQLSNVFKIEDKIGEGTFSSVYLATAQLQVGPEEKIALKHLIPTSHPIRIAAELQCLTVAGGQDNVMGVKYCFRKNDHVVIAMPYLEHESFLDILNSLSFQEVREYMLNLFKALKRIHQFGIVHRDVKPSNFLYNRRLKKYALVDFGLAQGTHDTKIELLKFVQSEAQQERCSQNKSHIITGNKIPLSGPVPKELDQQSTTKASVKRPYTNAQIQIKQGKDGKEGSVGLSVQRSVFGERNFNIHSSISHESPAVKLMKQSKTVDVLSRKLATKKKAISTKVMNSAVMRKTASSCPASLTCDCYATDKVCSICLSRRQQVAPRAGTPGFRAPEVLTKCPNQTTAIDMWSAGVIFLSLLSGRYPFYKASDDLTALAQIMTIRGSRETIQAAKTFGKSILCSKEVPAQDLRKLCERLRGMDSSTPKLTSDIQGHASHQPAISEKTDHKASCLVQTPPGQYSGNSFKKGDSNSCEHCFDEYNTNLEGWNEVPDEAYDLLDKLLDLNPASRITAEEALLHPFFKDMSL
Chain of Glycogen synthase kinase-3 beta (P49841 whole entry): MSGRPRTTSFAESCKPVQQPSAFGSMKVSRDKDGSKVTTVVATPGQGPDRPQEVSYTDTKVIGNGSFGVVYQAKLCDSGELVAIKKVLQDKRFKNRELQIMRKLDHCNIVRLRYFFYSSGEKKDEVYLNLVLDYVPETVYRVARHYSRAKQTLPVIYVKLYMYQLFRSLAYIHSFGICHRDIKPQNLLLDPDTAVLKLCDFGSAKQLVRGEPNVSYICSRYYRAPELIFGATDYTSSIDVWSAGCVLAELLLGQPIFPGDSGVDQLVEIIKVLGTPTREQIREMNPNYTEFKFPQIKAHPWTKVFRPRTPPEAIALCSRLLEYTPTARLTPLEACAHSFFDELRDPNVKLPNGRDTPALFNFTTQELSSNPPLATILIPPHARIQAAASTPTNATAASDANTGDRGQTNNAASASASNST
Chain of Homeodomain-interacting protein kinase 2 (Q9H2X6 whole entry): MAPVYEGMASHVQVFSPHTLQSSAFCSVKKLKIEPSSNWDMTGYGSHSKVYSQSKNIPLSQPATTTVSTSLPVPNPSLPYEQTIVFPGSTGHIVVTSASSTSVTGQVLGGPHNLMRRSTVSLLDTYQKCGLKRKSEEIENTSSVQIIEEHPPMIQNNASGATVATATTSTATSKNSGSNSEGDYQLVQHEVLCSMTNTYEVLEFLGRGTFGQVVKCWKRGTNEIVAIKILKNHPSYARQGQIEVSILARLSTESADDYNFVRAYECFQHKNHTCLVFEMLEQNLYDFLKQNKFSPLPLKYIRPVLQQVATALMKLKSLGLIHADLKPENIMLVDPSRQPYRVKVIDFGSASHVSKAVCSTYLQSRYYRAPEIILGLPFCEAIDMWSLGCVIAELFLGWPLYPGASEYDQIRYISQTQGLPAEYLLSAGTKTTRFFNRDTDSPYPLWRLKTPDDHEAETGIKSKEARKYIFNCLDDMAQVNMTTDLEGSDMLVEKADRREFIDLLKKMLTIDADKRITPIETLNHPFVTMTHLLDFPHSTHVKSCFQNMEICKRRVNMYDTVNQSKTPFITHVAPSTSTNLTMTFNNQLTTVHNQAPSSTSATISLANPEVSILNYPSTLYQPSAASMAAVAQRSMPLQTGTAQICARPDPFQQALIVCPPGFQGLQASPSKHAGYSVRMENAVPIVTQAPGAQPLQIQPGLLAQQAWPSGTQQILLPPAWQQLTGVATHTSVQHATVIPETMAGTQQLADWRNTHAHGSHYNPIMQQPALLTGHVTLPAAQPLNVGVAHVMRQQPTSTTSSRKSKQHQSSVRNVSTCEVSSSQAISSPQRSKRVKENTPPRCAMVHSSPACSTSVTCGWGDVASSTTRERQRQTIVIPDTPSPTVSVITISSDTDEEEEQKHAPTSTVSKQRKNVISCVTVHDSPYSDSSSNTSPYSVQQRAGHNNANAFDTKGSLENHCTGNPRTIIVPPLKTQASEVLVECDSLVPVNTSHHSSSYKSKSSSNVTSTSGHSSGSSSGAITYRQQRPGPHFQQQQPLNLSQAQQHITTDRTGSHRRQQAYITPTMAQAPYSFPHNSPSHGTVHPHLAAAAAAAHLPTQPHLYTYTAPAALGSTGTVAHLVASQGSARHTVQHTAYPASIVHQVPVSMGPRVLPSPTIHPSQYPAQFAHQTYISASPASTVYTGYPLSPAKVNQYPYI
Chain of Latent membrane protein 1 (P03230 whole entry): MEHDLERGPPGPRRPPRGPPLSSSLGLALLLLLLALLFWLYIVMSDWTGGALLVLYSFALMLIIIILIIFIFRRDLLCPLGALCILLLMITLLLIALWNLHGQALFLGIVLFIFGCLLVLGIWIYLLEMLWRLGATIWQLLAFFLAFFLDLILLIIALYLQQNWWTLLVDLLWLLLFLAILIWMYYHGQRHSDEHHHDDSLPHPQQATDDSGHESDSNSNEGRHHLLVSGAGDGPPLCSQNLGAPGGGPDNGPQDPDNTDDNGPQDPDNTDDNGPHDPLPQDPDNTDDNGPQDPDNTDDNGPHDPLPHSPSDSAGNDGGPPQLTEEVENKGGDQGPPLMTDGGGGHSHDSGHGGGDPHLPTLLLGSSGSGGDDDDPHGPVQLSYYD
Chain of Interleukin-1 receptor-associated kinase 4 (Q9NWZ3 whole entry): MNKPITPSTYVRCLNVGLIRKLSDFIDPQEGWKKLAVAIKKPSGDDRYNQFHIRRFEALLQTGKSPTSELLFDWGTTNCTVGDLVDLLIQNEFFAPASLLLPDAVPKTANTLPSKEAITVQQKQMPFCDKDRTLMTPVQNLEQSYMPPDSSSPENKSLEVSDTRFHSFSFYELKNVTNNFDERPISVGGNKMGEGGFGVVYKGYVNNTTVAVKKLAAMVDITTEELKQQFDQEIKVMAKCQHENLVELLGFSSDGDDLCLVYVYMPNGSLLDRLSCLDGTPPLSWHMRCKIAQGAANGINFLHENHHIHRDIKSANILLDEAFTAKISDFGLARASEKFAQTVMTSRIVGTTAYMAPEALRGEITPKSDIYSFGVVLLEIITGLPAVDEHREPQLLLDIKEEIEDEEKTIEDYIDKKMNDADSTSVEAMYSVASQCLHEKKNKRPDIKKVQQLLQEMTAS
Chain of Dual specificity protein kinase CLK4 (Q9HAZ1 whole entry): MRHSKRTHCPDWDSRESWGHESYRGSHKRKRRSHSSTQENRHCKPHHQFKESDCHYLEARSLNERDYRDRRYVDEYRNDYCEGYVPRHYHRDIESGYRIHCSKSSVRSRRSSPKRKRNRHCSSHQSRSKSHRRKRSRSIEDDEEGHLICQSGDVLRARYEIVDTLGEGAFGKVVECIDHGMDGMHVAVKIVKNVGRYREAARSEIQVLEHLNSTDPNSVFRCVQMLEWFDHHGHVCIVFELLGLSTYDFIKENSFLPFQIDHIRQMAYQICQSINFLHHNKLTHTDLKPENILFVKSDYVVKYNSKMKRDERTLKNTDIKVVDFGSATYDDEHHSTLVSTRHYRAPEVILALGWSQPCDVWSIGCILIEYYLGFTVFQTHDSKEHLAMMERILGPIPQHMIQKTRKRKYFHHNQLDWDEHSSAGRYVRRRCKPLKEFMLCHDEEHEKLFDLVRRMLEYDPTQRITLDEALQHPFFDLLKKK
Chain of Botulinum neurotoxin type A (P0DPI1 2-448 limits assumed): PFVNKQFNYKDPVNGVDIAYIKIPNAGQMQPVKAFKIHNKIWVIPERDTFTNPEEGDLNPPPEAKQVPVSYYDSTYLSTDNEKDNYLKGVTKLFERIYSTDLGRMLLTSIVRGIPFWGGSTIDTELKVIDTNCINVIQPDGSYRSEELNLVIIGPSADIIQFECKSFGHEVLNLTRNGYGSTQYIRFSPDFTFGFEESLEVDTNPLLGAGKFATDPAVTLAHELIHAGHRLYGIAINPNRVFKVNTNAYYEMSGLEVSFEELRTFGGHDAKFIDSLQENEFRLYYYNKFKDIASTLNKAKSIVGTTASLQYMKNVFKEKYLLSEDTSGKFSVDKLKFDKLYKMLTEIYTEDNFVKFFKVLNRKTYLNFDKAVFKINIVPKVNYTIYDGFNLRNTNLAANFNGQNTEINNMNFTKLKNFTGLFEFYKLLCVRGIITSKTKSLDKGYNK
Chain of Genome polyprotein (P29990 2492-3391 limits assumed): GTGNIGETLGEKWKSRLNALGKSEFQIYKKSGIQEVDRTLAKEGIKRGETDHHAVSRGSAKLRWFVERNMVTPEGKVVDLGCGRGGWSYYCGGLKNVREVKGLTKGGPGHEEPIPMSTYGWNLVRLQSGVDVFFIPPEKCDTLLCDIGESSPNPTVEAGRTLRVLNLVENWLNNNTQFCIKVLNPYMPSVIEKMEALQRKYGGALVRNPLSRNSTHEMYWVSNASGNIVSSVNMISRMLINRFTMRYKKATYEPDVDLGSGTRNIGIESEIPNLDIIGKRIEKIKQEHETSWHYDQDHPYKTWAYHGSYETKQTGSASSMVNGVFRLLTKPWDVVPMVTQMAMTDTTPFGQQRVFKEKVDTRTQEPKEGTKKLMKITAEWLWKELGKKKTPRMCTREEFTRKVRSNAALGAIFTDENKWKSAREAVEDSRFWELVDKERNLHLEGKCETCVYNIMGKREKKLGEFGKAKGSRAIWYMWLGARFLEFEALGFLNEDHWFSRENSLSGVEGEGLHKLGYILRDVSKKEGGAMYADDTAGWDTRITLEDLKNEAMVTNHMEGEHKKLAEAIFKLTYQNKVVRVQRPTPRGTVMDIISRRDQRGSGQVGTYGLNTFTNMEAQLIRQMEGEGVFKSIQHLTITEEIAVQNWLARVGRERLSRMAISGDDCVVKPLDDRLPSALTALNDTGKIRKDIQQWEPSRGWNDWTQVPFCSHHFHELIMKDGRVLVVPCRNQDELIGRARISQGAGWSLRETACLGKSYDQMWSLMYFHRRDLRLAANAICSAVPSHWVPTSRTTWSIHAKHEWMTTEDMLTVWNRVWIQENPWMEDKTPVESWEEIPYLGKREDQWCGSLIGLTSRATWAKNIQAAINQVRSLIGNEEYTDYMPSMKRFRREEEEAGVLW

In the case of Cn1cc(-c2ccccc2)c2nc(-c3ccncc3)cc(=O)n21, the Ki [1] is reported as 2.51 µM (active), the Ki [2] is reported as 0.0316 µM (active) and the Ki [3] is reported as 1.26 µM (active). For the same compound, the Ki [4] was > 7.94 µM (inactive), the Ki [5] was 0.126 µM (active) and the Ki [6] was > 10 µM (inactive). For the same compound, the Ki [7] was 0.0158 µM (active), the Ki [8] was 5.01 µM (active) and the Ki [9] was 0.1 µM (active).
With COc1cc(NCCCCCCN)c2ncccc2c1OC the AC50 [10] was 132 µM (active), the IC50 (Caspase-3) was 4.23 µM (active) and the IC50 [11] was 0.434 µM (active). The AC50 [12] was 34.4 µM (active), the IC50 (Genome polyprotein) was > 100 µM (active) and the CC50 [13] was > 40 µM (active). For the same compound, the IC50 [14] was 0.208 µM (active), the AC50 [15] was 0.87 µM (active) and the IC50 [16] was 2.53 µM (active).
In the case of O=c1c(Cl)c2oc3ccccc3nc-2c2ccccc12, the EC50 [17] is reported as 12.4 µM (active), the AC50 (INS1) is reported as 2.61 µM (active) and the CC50 [18] is reported as > 40 µM (active).
For CCCCCCCCC1=NCCc2c1[nH]c1ccccc21, the EC50 [19] was 13.7 µM (active).

— ChEMBL document CHEMBL1201862, “PubChem BioAssay data set” (2004)
